According to US20210061929A1, “ACTIVE-ENERGY-RAY-CURABLE COMPOSITION, ACTIVE-ENERGY-RAY-CURABLE INK, COMPOSITION STORED CONTAINER, TWO-DIMENSIONAL OR THREE-DIMENSIONAL IMAGE FORMING METHOD AND APPARATUS, CURED PRODUCT, AND DECORATED PRODUCT” (priority 2019, published 2021):

Legend:
[1] = Skin sensitization test by local lymph node assay (LLNA), SI value of the materials; format: in vivo; conditions: for SI (skin sensitization SI value): material as such, local lymph node assay (LLNA) method
Procedure: The amine value of the dispersant polymer, a skin sensitization SI value indicating a skin sensitizing potential, and the colony count by Ames test indicating carcinogenicity were obtained in the manners described below.
The SI value was measured by a skin sensitization test according to a local lymph node assay (LLNA) method.
Oral toxicity was tested according to OECD test guideline TG423. […] Skin sensitizing potential was tested according to OECD test guideline TG442B.

[2] = format: cell-based; conditions: OECD test guideline TG471 (±S9 mix)
Procedure: (§1) As a safety test, AMES test was performed according to OECD test guideline TG471 (±S9 mix), and the result was negative. Oral toxicity was tested according to OECD test guideline TG423. […] Skin stimulation was tested according to OECD test guideline TG404, and the result was PII=0.5. Skin sensitizing potential was tested according to OECD test guideline TG442B.

[3] = Oral toxicity according to OECD test guideline TG423; format: in vivo
Procedure: as §1

[4] = format: in vivo; conditions: OECD test guideline TG404
Procedure: as §1

Molecule | SI (skin sensitization SI value) [1] | also measured
C=CC(=O)N(C)CC(=O)OC [Example A1-1, N-acryloyl-N-methylglycinemethyl ester] | (see Synthesis example 1) SI = 1.00 | SI value (skin sensitizing potential) ([1]; OECD test guideline TG442B): 1.00; Influence on the health of human bodies (conclusion of the safety tests) ([1]; in vivo, po): significantly uninfluential on the health of human bodies; AMES test result [2]: negative; LD50 ([3]; in vivo, po, 2000 mg/kg): ≥ 2000 mg/kg; Fatal cases (oral toxicity) ([3]; six cases): none of six cases was a fatal case; PII (skin stimulation) [4]: 0.5
C=CC(=O)N(C)CC(=O)OCC [Example A1-2, N-acryloyl-N-methylglycineethyl ester] | (see Synthesis example 2) SI = 1.02 | –
C=CC(=O)N(C)C(C)C(=O)OC (stereo not shown) [Example A1-3, N-acryloyl-N-methylalaninemethyl ester] | (see Synthesis example 3) SI = 1.12 | –
C=C(C)C(=O)OCCOCCOC(=O)C(=C)C [Example A2-1] | Shin- Nakamura Chemical Co., Ltd. “2G” SI = 1.05 Ltd. | –
C=C(C)C(=O)OCC(CC)(COC(=O)C(=C)C)COC(=O)C(=C)C [Example A2-3] | Shin- Nakamura Chemical Co., Ltd. “TMPT” SI = 1.03 | –
C=C(C)C(=O)OCC(COC(=O)C(=C)C)OC(C)=O [Example A2-6, 2-acetyl-1,3-glycerol dimethacrylate] | (see Synthesis example 5) SI = 1.40 | –
C=C(C)C(=O)OCCO [Example A3-1, 2-hydroxyethyl methacrylate] | Tokyo Chemical Industry Co., Ltd. “2-hydroxyethyl methacrylate” SI = 1.26 | –
C=CC(=O)OCC(CC)(COC(=O)C=C)COC(=O)C=C [Example A4-1] | Toagosei Co., Ltd. “M-3547” SI = 3.42 | –
Isobornyl acrylate [Example A3-2] | Osaka Organic Chemical Industry Ltd. “Isobomyl acrylate” SI = 8.30 | SI (skin sensitization SI value) ([1]; listed as IBXA): 8.30
